# According to patent US20220087990A1, “APPLICATION OF RIFAMYCIN-QUINOLIZIDONE CONJUGATE MOLECULE AND PHARMACEUTICALLY ACCEPTABLE SALT THEREOF” (priority 2019, published 2022):
# Like-named read-outs stand apart in the source and are kept apart here.
# Experiments:
# Format in all cases: cell-based
# [1] = test system: methicillin-resistant Staphylococcus aureus (MRSA) isolates; assay: MIC measured by agar dilution method (CLSI); conditions: Staphylococcus aureus, MRSA, agar dilution
# Experimental: (§1) Spontaneous mutation and minimal inhibit concentration (MIC) tested by agar dilution method, the above compounds are respectively prepared into a stock solution (100X) with a concentration 100 times the highest final concentration in corresponding solvents and used on the same day. Before use, I is further diluted with DMSO; and oxacillin, rifampicin and levofloxacin are further diluted with water.
# (§2) Bacterial isolates: Staphylococcus aureus isolates are retrieved from the −80° C. storage room of Micromyx Culture Collection, thawed, plated onto Tryptic Soy Agar+5% sheep blood (Remel; Lenexa, Kans.), and then incubated aerobically at 35° C. overnight. S. aureus ATCC 29213 (MRSA; MMX 0100) was included during testing only for the purpose of quality control. Test Media: The isolates were tested in both the agar dilution MIC assay and the spontaneous mutation assay using Mueller-Hinton Agar (MHA; BD/BBL; Lot No. 6229829 & 4216798). Inocula of each isolate were suspended in cation-adjusted Mueller-Hinton Broth (CAMHB) (BD/BBL; Lot Nos. 5257869 & 6258541). Sodium chloride (Sigma-Aldrich; Lot No. SLBL0434V) was added to CAMHB at a final concentration of 2% when testing oxacillin. Dilutions of bacterial cell suspensions for the purpose of performing colony counts were also made in CAMHB.
# (§3) MIC measured by agar dilution method: according to the recommendation from the Clinical and Laboratory Standards Institute (CLSI), the MIC value is measured by the agar dilution method. […] Each test agent was combined with molten MHA agar (50-55° C.) at a ratio of 0.2 mL of 100× test agent to 19.8 mL agar in a sterile tube, mixed gently, and then poured into a sterile petri plate (BD Falcon). Plates were allowed to solidify at room temperature. A 0.5 McFarland standard bacterial suspension was prepared, diluted 1:10 in CAMHB, and transferred to the wells of a stainless steel replicator block before stamping onto plates containing drug, resulting in 10^4 CFU/spot. After allowing the inoculum to dry on the surface of the agar, the plates were inverted, incubated aerobically at 35° C. for 20-24 hr, and inspected for growth.
# [2] = test system: Staphylococcus aureus ATCC 29213; assay: MIC measured by agar dilution method, quality control strain; conditions: strain 100, MSSA QC strain
# Experimental: as §1, §2, §3
# In parallel experiments, a standard bacterium suspension with a […] turbidity of 0.5 is prepared as a standard inoculum for agar dilution analysis (10^4 CFU/point). […] In this step, the broths and drugs used in the spontaneous mutation analysis are used to confirm that the concentration of the drug stock solution can inhibit the growth of the standard inoculum. The quality of the levofloxacin stock solution is controlled by a standard inoculum and levofloxacin of 8-0.008 μg/mL, and separate agar dilution analysis is performed. […]
# [3] = test system: Staphylococcus aureus MMX 3265, 3270, 3278, and 6312; conditions: for Cell counts (mean): 1 used if no colonies
# Experimental: Each test agent stock solution was prepared at 100× the final desired test concentration for the spontaneous mutation frequency assay agar plates.
# The drug/agar mixture was dispensed into sterile 150×15 mm plates (BD Falcon) to a volume of 50 mL in each plate. The target inoculum for each spontaneous mutation plate was at least 10^9 CFU. Plates were allowed to solidify at room temperature.
# The inocula for the spontaneous mutation frequency assay were prepared by using sterile cotton swabs to harvest colonies from freshly grown isolates and preparing a dense cell suspension (approximately 1.70 on the turbidity meter) in 6 mL of CAMHB. The viable count of this suspension was determined by plating serial ten-fold dilutions onto MHA and taking the average of duplicate counts. For the spontaneous mutation assay, 0.25 mL of inoculum was spread onto the surface of duplicate 150×15 mm plates for each drug concentration tested, allowed to dry, and then the plates were inverted and incubated at 35° C. for 48 hr prior to counting viable colonies. The spontaneous mutation frequency was calculated using the following equation:
# Spontaneous mutation frequency=average number of colonies on selected plates/total number of cells incubated onto each plate
# If there were no colonies on the antibiotic selection plates, the spontaneous mutation frequency was reported as less than or equal to the mutation frequency that would have resulted from the presence of one colony (e.g. 1/total number of cells inoculated onto the plate).
# [4] = test system: Staphylococcus aureus ATCC 29213; assay: MIC measured by fluid broth microdilution method (quality control); conditions: ATCC29213
# [5] = isolate 3265 LEV^R RIF^S, drug 0.5 μg/mL in plates (combination 0.5 each), inoculation 5.40E+09 CFU
# [6] = isolate 3265 LEV^R RIF^S, drug 2 μg/mL in plates (combination 2 each), inoculation 5.40E+09 CFU
# [7] = isolate 3265 LEV^R RIF^S, drug 8 μg/mL in plates (combination 8 each), inoculation 5.40E+09 CFU
# [8] = isolate 3270 LEV^R RIF^S, drug 0.5 μg/mL in plates (combination 0.5 each), inoculation 5.30E+09 CFU
# [9] = isolate 3270 LEV^R RIF^S, drug 2 μg/mL in plates (combination 2 each), inoculation 5.30E+09 CFU
# [10] = isolate 3270 LEV^R RIF^S, drug 8 μg/mL in plates (combination 8 each), inoculation 5.30E+09 CFU
# [11] = isolate 3278 LEV^S RIF^S, drug 0.5 μg/mL in plates (combination 0.5 each), inoculation 3.80E+09 CFU
# [12] = isolate 3278 LEV^S RIF^S, drug 2 μg/mL in plates (combination 2 each), inoculation 3.80E+09 CFU
# [13] = isolate 3278 LEV^S RIF^S, drug 8 μg/mL in plates (combination 8 each), inoculation 3.80E+09 CFU
# [14] = isolate 6312 LEV^R RIF^S, drug 0.5 μg/mL in plates (combination 0.5 each), inoculation 3.90E+09 CFU
# [15] = isolate 6312 LEV^R RIF^S, drug 2 μg/mL in plates (combination 2 each), inoculation 3.90E+09 CFU
# [16] = isolate 6312 LEV^R RIF^S, drug 8 μg/mL in plates (combination 8 each), inoculation 3.90E+09 CFU
compound,measurement,setting,value
CO[C@H]1/C=C/O[C@@]2(C)Oc3c(C)c(O)c4c(O)c(c(/C=N/N5CCN(C)CC5)c(O)c4c3C2=O)NC(=O)/C(C)=C\C=C\[C@H](C)[C@H](O)[C@@H](C)[C@@H](O)[C@@H](C)[C@H](OC(C)=O)[C@@H]1C [Rifampicin],MIC,"[1]; strain 3085, LEV^S RIF^S",0.015 µg/mL
same,MIC,"[1]; strain 3090, LEV^R RIF^S",0.008 µg/mL
same,MIC,"[1]; strain 3094, LEV^R RIF^S",0.015 µg/mL
same,MIC,"[1]; strain 3098, LEV^S RIF^S",0.015 µg/mL
same,MIC,"[1]; strain 3265, LEV^R RIF^S",0.008 µg/mL
same,MIC,"[1]; strain 3266, LEVR RIFS",0.008 µg/mL
same,MIC,"[1]; strain 3270, LEV^R RIF^S",0.015 µg/mL
same,MIC,"[1]; strain 3271, LEV^R RIF^S",0.015 µg/mL
same,MIC,"[1]; strain 3277, LEV^S RIF^S",0.015 µg/mL
same,MIC,"[1]; strain 3278, LEV^S RIF^S",0.015 µg/mL
same,MIC,"[1]; strain 6312, LEV^R RIF^S",0.015 µg/mL
same,MIC,"[1]; strain 6313, LEV^R RIF^S",0.015 µg/mL
same,MIC,"[1]; strain 6315, LEV^R RIF^S",0.015 µg/mL
same,MIC,"[1]; strain 6498, LEV^R RIF^S",0.015 µg/mL
same,MIC,"[1]; strain 6501, LEV^R RIF^S",0.015 µg/mL
same,MIC,"[1]; strain 6505, LEV^R RIF^S",0.015 µg/mL
same,MIC,"[1]; strain 7771, LEV^R RIF^S",0.008 µg/mL
same,MIC,"[1]; strain 7772, LEV^S RIF^S",0.015 µg/mL
same,MIC,"[1]; strain 7773, LEV^R RIF^S",0.015 µg/mL
same,MIC,"[1]; strain 7774, LEV^R RIF^S",0.015 µg/mL
same,MIC,"[1]; strain 7775, LEV^R",0.015 µg/mL
same,MIC,[2],0.015 µg/mL
same,Cell counts (mean),"[3]; isolate 3265, drug 0.5 μg/mL",55
same,Cell counts (mean),"[3]; isolate 3265, drug 2 μg/mL",29
same,Cell counts (mean),"[3]; isolate 3265, drug 8 μg/mL",36
same,Cell counts plate A,[3]; [5],52
same,Cell counts plate B,[3]; [5],57
same,Mutation frequency,[3]; [5],1.01E−08
same,Cell counts plate A,[3]; [6],27
same,Cell counts plate B,[3]; [6],30
same,Mutation frequency,[3]; [6],5.28E−09
same,Cell counts plate A,[3]; [7],43
same,Cell counts plate B,[3]; [7],29
same,Mutation frequency,[3]; [7],6.67E−09
same,Cell counts (mean),"[3]; isolate 3270, drug 0.5 μg/mL",83
same,Cell counts (mean),"[3]; isolate 3270, drug 2 μg/mL",49
same,Cell counts (mean),"[3]; isolate 3270, drug 8 μg/mL",43
same,Cell counts plate A,[3]; [8],93
same,Cell counts plate B,[3]; [8],73
same,Mutation frequency,[3]; [8],1.57E−08
same,Cell counts plate A,[3]; [9],44
same,Cell counts plate B,[3]; [9],53
same,Mutation frequency,[3]; [9],9.15E−09
same,Cell counts plate A,[3]; [10],43
same,Cell counts plate B,[3]; [10],42
same,Mutation frequency,[3]; [10],8.02E−09
same,Cell counts (mean),"[3]; isolate 3278, drug 0.5 μg/mL",47
same,Cell counts (mean),"[3]; isolate 3278, drug 2 μg/mL",29
same,Cell counts (mean),"[3]; isolate 3278, drug 8 μg/mL",34
same,Cell counts plate A,[3]; [11],49
same,Cell counts plate B,[3]; [11],44
same,Mutation frequency,[3]; [11],1.22E−08
same,Cell counts plate A,[3]; [12],20
same,Cell counts plate B,[3]; [12],37
same,Mutation frequency,[3]; [12],7.50E−09
same,Cell counts plate A,[3]; [13],34
same,Cell counts plate B,[3]; [13],33
same,Mutation frequency,[3]; [13],8.82E−09
same,Cell counts (mean),"[3]; isolate 6312, drug 0.5 μg/mL",32
same,Cell counts (mean),"[3]; isolate 6312, drug 2 μg/mL",29
same,Cell counts (mean),"[3]; isolate 6312, drug 8 μg/mL",34
same,Cell counts plate A,[3]; [14],34
same,Cell counts plate B,[3]; [14],29
same,Mutation frequency,[3]; [14],8.08E−09
same,Cell counts plate A,[3]; [15],36
same,Cell counts plate B,[3]; [15],22
same,Mutation frequency,[3]; [15],7.44E−09
same,Cell counts plate A,[3]; [16],38
same,Cell counts plate B,[3]; [16],29
same,Mutation frequency,[3]; [16],8.59E−09
same,MIC,[4],0.008 µg/mL
